Test results reported in article PMC12615863, “Improving GRPR-targeting peptides for radiotheranostics application: insights from chelator modifications and α-methyl-L tryptophan substitution” (EJNMMI Radiopharmacy and Chemistry, 2025).
Where two headings read alike, the source gives them in different places.

How the values were obtained:
PC-3 cells = test: In vitro GRPR specificity assay (uptake with or without NOTA-PEG2-RM26 block); assay type: cell-based, human
Protocol: After discarding the medium, the cells were washed with cold (4 °C) phosphate-buffered saline containing 1% w/v bovine serum albumin (PBS/BSA). The radiopeptides (Cf = 1 nM in 1 mL PBS/BSA) were added to all wells. A subset of wells was also treated with an excess of unlabeled GRPR-binding peptide NOTA-PEG2-RM26 (Bjäreback et al. [2025]) (Cf = 1 µM in 1 mL PBS/BSA) to block GRPR. After incubation for 1 h at 37 °C, the supernatant was removed, and the cells were washed and then collected by treating them with 1 M NaOH. The activity of the collected samples was measured with the gamma counter. This assay was performed in triplicate for each radiopeptide.

[1] = Biodistribution in mice bearing PC-3 xenografts; assay type: in vivo, Balb/c nu/nu mice; settings: mouse, total radioactivity; for tissue uptake at 4 h / tissue uptake dose at 4 h: 4 h pi; for tissue uptake at 24 h / tissue uptake dose at 24 h: 24 h pi
Protocol: (§1) Each mouse was xenografted with a subcutaneous injection of 8 × 10⁶ PC-3 cells in the right hind leg. After approximately 4 weeks, the animals were injected into the tail vein with 100 µL of radiopeptide (100 pmol—110–130 kBq, diluted in PBS/BSA). Four animals were used for each time point per peptide. […] At the determined time points, the mice were euthanized, organs were collected and weighed, and their activity content was measured in the gamma counter. Results were presented as the percentage of injected activity per gram (%IA/g) for the collected organs, and the percentage of injected activity (%IA) for the gastrointestinal tract (GI) and the carcass. […] Statistical analysis was performed with GraphPad Prism 10 using two way ANOVA with Tuckey’s or Šidák’a post hoc analysis.

PC-3 xenografts = test: Biodistribution in mice bearing PC-3 xenografts; assay type: in vivo, Balb/c nu/nu mice; settings: PC-3 xenografted mice, between 4 and 24 h pi
Protocol: as §1

[2] = In vivo stability: intact radiopeptide in peripheral mouse blood 5 min pi, radio-HPLC; settings: for Percentage of intact peptide, Entresto: blood 5 min pi
Protocol: Two animals per peptide were injected intravenously with a bolus of test radioligand (50 MBq, 2 nmol of peptide in 100 μL PBS/EtOH v/v 9:1) – Control group. To inhibit NEP, additional groups of two mice per compound were orally treated with 12 mg Entresto® (Novartis, Basel, Switzerland) 30 min before receiving the intravenous injection—Entresto group. Five minutes post-injection (pi), the animals were euthanized, and the blood was collected and immediately mixed with EDTA (0.1 mM, 40 μL) in Eppendorf tubes on ice. The mixture was spun at 2000 g for 10 min at 4 °C in an Eppendorf Centrifuge 5430 R (Eppendorf AG, Hamburg, Germany), and the plasma was collected and diluted with an equal volume of MeCN (4 °C). After a second centrifugation at 15,000 g and 4 °C for 10 min, the supernatant was collected in an Eppendorf tube and concentrated to 50–100 μL at 50 °C using a mild stream of N2. PBS was added to the samples to reach a final volume of 200 μL, and the solutions were filtered through a syringe filter (0.22 μm, 13 mm, VWR International, Radnor, USA). The filtered solution was analyzed by reversed-phase radio-HPLC to determine the percentage of intact peptides. The peak corresponding to the intact peptide was identified by injection of an aliquot of the labeling solution.

[3] = Balb/c nu/nu, blood, iv, 100 pmol, PC-3 xenografted Balb/c nu/nu mice, iv 100 pmol, mean ± SD, n = 4, read-out: Blood activity uptake
[4] = Balb/c nu/nu, bone, iv, 100 pmol, PC-3 xenografted Balb/c nu/nu mice, iv 100 pmol, mean ± SD, n = 4, read-out: Bone activity uptake
[5] = Balb/c nu/nu, kidneys, iv, 100 pmol, PC-3 xenografted Balb/c nu/nu mice, iv 100 pmol, mean ± SD, n = 4, read-out: Kidneys activity uptake
[6] = Balb/c nu/nu, liver, iv, 100 pmol, PC-3 xenografted Balb/c nu/nu mice, iv 100 pmol, mean ± SD, n = 4, read-out: Liver activity uptake
[7] = Balb/c nu/nu, lungs, iv, 100 pmol, PC-3 xenografted Balb/c nu/nu mice, iv 100 pmol, mean ± SD, n = 4, read-out: Lungs activity uptake
[8] = Balb/c nu/nu, muscle, iv, 100 pmol, PC-3 xenografted Balb/c nu/nu mice, iv 100 pmol, mean ± SD, n = 4, read-out: Muscle activity uptake
[9] = Balb/c nu/nu, pancreas, iv, 100 pmol, PC-3 xenografted Balb/c nu/nu mice, iv 100 pmol, mean ± SD, n = 4, read-out: Pancreas activity uptake
[10] = Balb/c nu/nu, small intestine, iv, 100 pmol, PC-3 xenografted Balb/c nu/nu mice, iv 100 pmol, mean ± SD, n = 4, read-out: Small Int. activity uptake
[11] = Balb/c nu/nu, spleen, iv, 100 pmol, PC-3 xenografted Balb/c nu/nu mice, iv 100 pmol, mean ± SD, n = 4, read-out: Spleen activity uptake
[12] = Balb/c nu/nu, stomach, iv, 100 pmol, PC-3 xenografted Balb/c nu/nu mice, iv 100 pmol, mean ± SD, n = 4, read-out: Stomach activity uptake
[13] = Balb/c nu/nu, tumor, iv, 100 pmol, PC-3 xenografted Balb/c nu/nu mice, iv 100 pmol, mean ± SD, n = 4, read-out: Tumor activity uptake
[14] = carcass, PC-3 xenografted Balb/c nu/nu mice, iv 100 pmol, mean ± SD, n = 4, read-out: Body activity uptake
[15] = gastrointestinal tract with content, PC-3 xenografted Balb/c nu/nu mice, iv 100 pmol, mean ± SD, n = 4, read-out: GI activity uptake

tissue uptake at 2 h ([1]; Balb/c nu/nu, blood, iv, 100 pmol, PC-3 xenografted Balb/c nu/nu mice, iv 100 pmol, 2 h pi, mean ± SD, n = 4, read-out: Blood activity uptake): 0.13 ± 0.05 %ID/g
tissue uptake at 4 h [1, 3]: 0.07 ± 0.03 %ID/g
tissue uptake at 24 h [1, 3]: 0.01 ± 0.01 %ID/g
tissue uptake at 2 h ([1]; Balb/c nu/nu, blood, iv, PC-3 xenografted Balb/c nu/nu mice, iv 100 pmol, 2 h pi blocked (co-injected 100-fold molar excess NOTA-PEG2-RM26), mean ± SD, n = 3, read-out: Blood activity uptake): 0.06 ± 0.02 %ID/g
tissue uptake at 2 h ([1]; Balb/c nu/nu, blood, lungs, spleen, muscle, bone, iv, 100 pmol, PC-3 xenografted mice, 2 h pi, read-out: activity uptake in non-target organs (blood, lungs, spleen, muscle, and bone)): < 0.6 %ID/g
tissue uptake at 2 h ([1]; Balb/c nu/nu, bone, iv, 100 pmol, PC-3 xenografted Balb/c nu/nu mice, iv 100 pmol, 2 h pi, mean ± SD, n = 4, read-out: Bone activity uptake): 0.13 ± 0.07 %ID/g
tissue uptake at 4 h [1, 4]: 0.14 ± 0.05 %ID/g
tissue uptake at 24 h [1, 4]: 0.09 ± 0.04 %ID/g
tissue uptake at 2 h ([1]; Balb/c nu/nu, bone, iv, PC-3 xenografted Balb/c nu/nu mice, iv 100 pmol, 2 h pi blocked (co-injected 100-fold molar excess NOTA-PEG2-RM26), mean ± SD, n = 3, read-out: Bone activity uptake): 0.13 ± 0.03 %ID/g
tissue uptake dose ([1]; Balb/c nu/nu, gastrointestinal tract with content, iv, 100 pmol, PC-3 xenografted mice, all time points (2, 4, 24 h pi), read-out: activity uptake for the GI with content): < 2 %ID
tissue uptake at 2 h ([1]; Balb/c nu/nu, kidneys, iv, 100 pmol, PC-3 xenografted Balb/c nu/nu mice, iv 100 pmol, 2 h pi, mean ± SD, n = 4, read-out: Kidneys activity uptake): 8.9 ± 2.5 %ID/g
tissue uptake at 4 h [1, 5]: 9.5 ± 2.1 %ID/g
tissue uptake at 24 h [1, 5]: 5.5 ± 0.6 %ID/g
tissue uptake at 2 h ([1]; Balb/c nu/nu, kidneys, iv, PC-3 xenografted Balb/c nu/nu mice, iv 100 pmol, 2 h pi blocked (co-injected 100-fold molar excess NOTA-PEG2-RM26), mean ± SD, n = 3, read-out: Kidneys activity uptake): 7.6 ± 1.2 %ID/g
tissue uptake at 2 h ([1]; Balb/c nu/nu, liver, iv, 100 pmol, PC-3 xenografted Balb/c nu/nu mice, iv 100 pmol, 2 h pi, mean ± SD, n = 4, read-out: Liver activity uptake): 0.24 ± 0.05 %ID/g
tissue uptake at 4 h [1, 6]: 0.2 ± 0.03 %ID/g
tissue uptake at 24 h [1, 6]: 0.14 ± 0.02 %ID/g
tissue uptake at 2 h ([1]; Balb/c nu/nu, liver, iv, PC-3 xenografted Balb/c nu/nu mice, iv 100 pmol, 2 h pi blocked (co-injected 100-fold molar excess NOTA-PEG2-RM26), mean ± SD, n = 3, read-out: Liver activity uptake): 0.2 ± 0.02 %ID/g
tissue uptake at 4 h [1, 7]: 0.3 ± 0.2 %ID/g
tissue uptake at 24 h [1, 7]: 0.07 ± 0.01 %ID/g
tissue uptake at 2 h ([1]; Balb/c nu/nu, lungs, iv, PC-3 xenografted Balb/c nu/nu mice, iv 100 pmol, 2 h pi blocked (co-injected 100-fold molar excess NOTA-PEG2-RM26), mean ± SD, n = 3, read-out: Lungs activity uptake): 0.21 ± 0.03 %ID/g
tissue uptake at 2 h ([1]; Balb/c nu/nu, muscle, iv, 100 pmol, PC-3 xenografted Balb/c nu/nu mice, iv 100 pmol, 2 h pi, mean ± SD, n = 4, read-out: Muscle activity uptake): 0.07 ± 0.06 %ID/g
tissue uptake at 4 h [1, 8]: 0.05 ± 0.02 %ID/g
tissue uptake at 24 h [1, 8]: 0.02 ± 0.01 %ID/g
tissue uptake at 2 h ([1]; Balb/c nu/nu, muscle, iv, PC-3 xenografted Balb/c nu/nu mice, iv 100 pmol, 2 h pi blocked (co-injected 100-fold molar excess NOTA-PEG2-RM26), mean ± SD, n = 3, read-out: Muscle activity uptake): 0.04 ± 0.01 %ID/g
tissue uptake at 2 h ([1]; Balb/c nu/nu, pancreas, iv, 100 pmol, PC-3 xenografted Balb/c nu/nu mice, iv 100 pmol, 2 h pi, mean ± SD, n = 4, read-out: Pancreas activity uptake): 7.3 ± 3 %ID/g
tissue uptake at 4 h [1, 9]: 2.9 ± 1 %ID/g
tissue uptake at 24 h [1, 9]: 0.43 ± 0.09 %ID/g
tissue uptake at 2 h ([1]; Balb/c nu/nu, small intestine, iv, 100 pmol, PC-3 xenografted Balb/c nu/nu mice, iv 100 pmol, 2 h pi, mean ± SD, n = 4, read-out: Small Int. activity uptake): 0.8 ± 0.5 %ID/g
tissue uptake at 4 h [1, 10]: 0.5 ± 0.2 %ID/g
tissue uptake at 24 h [1, 10]: 0.07 ± 0.04 %ID/g
tissue uptake at 2 h ([1]; Balb/c nu/nu, small intestine, iv, PC-3 xenografted Balb/c nu/nu mice, iv 100 pmol, 2 h pi blocked (co-injected 100-fold molar excess NOTA-PEG2-RM26), mean ± SD, n = 3, read-out: Small Int. activity uptake): 0.3 ± 0.1 %ID/g
tissue uptake at 2 h ([1]; Balb/c nu/nu, spleen, iv, 100 pmol, PC-3 xenografted Balb/c nu/nu mice, iv 100 pmol, 2 h pi, mean ± SD, n = 4, read-out: Spleen activity uptake): 0.15 ± 0.07 %ID/g
tissue uptake at 4 h [1, 11]: 0.15 ± 0.06 %ID/g
tissue uptake at 24 h [1, 11]: 0.11 ± 0.04 %ID/g
tissue uptake at 2 h ([1]; Balb/c nu/nu, spleen, iv, PC-3 xenografted Balb/c nu/nu mice, iv 100 pmol, 2 h pi blocked (co-injected 100-fold molar excess NOTA-PEG2-RM26), mean ± SD, n = 3, read-out: Spleen activity uptake): 0.12 ± 0.04 %ID/g
tissue uptake at 4 h [1, 12]: 1.3 ± 0.2 %ID/g
tissue uptake at 24 h [1, 12]: 0.14 ± 0.07 %ID/g
tissue uptake at 2 h ([1]; Balb/c nu/nu, stomach, iv, PC-3 xenografted Balb/c nu/nu mice, iv 100 pmol, 2 h pi blocked (co-injected 100-fold molar excess NOTA-PEG2-RM26), mean ± SD, n = 3, read-out: Stomach activity uptake): 0.36 ± 0.07 %ID/g
tissue uptake at 2 h ([1]; Balb/c nu/nu, stomach, small intestines, iv, 100 pmol, PC-3 xenografted mice, 2 h pi, read-out: activity uptake in the stomach and small intestines): < 2.5 %ID/g
tissue uptake at 2 h ([1]; Balb/c nu/nu, tumor, iv, 100 pmol, PC-3 xenografted Balb/c nu/nu mice, iv 100 pmol, 2 h pi, mean ± SD, n = 4, read-out: Tumor activity uptake): 15.8 ± 3.7 %ID/g
tissue uptake at 4 h [1, 13]: 15.3 ± 1.4 %ID/g
tissue uptake at 24 h [1, 13]: 12.1 ± 1.3 %ID/g
tissue uptake at 2 h ([1]; Balb/c nu/nu, tumor, iv, PC-3 xenografted Balb/c nu/nu mice, iv 100 pmol, 2 h pi blocked (co-injected 100-fold molar excess NOTA-PEG2-RM26), mean ± SD, n = 3, read-out: Tumor activity uptake): 3.1 ± 0.9 %ID/g
tissue uptake dose at 2 h ([1]; carcass, PC-3 xenografted Balb/c nu/nu mice, iv 100 pmol, 2 h pi, mean ± SD, n = 4, read-out: Body activity uptake): 1.8 ± 1.3 %ID
tissue uptake dose at 4 h [1, 14]: 2.3 ± 0.8 %ID
tissue uptake dose at 24 h [1, 14]: 0.5 ± 0.1 %ID
tissue uptake dose at 2 h ([1]; gastrointestinal tract with content, PC-3 xenografted Balb/c nu/nu mice, iv 100 pmol, 2 h pi, mean ± SD, n = 4, read-out: GI activity uptake): 1.5 ± 0.4 %ID
tissue uptake dose at 4 h [1, 15]: 0.7 ± 0.2 %ID
tissue uptake dose at 24 h [1, 15]: 0.3 ± 0.2 %ID
tumor retention of activity (PC-3 xenografts): around 80%
Percentage of intact peptide, Entresto ([2]; NMRI mice, 12 mg Entresto orally 30 min before injection, recorded value n1): 92%
Percentage of intact peptide, Entresto ([2]; NMRI mice, 12 mg Entresto orally 30 min before injection, recorded value n2): 94%
Percentage of intact peptide, Entresto ([2]; healthy NMRI mice, 12 mg Entresto orally 30 min before iv injection (NEP inhibition), radio-HPLC, mean of n = 2): 93%
Percentage of intact peptide, Control ([2]; healthy NMRI mice, iv 50 MBq, 2 nmol, peripheral blood 5 min pi, radio-HPLC, mean of n = 2): 85% [81% - 90%]
SMILES: CC(C)C[C@H](NC(=O)C[C@H](O)[C@H](CC(C)C)NC(=O)[C@H](Cc1c[nH]cn1)NC(=O)CN(C)C(=O)[C@@H](NC(=O)[C@H](C)NC(=O)[C@](C)(Cc1c[nH]c2ccccc12)NC(=O)[C@H](CCC(N)=O)NC(=O)[C@@H](Cc1ccccc1)NC(=O)CN1CCC(NC(=O)COCCOCCNC(=O)CCC(C(=O)O)N2CCN(CC(=O)O)CCN(CC(=O)O)CCN(CC(=O)O)CC2)CC1)C(C)C)C(N)=O (stereo partly drawn) [[^177Lu]Lu-PKB2, metal not drawn]
in vitro binding specificity (PC-3 cells; 1 nM radiopeptide, 1 h at 37 °C, block with 1 µM NOTA-PEG2-RM26, n = 3): GRPR-mediated activity uptake
total cellular activity uptake (rank among the three radiopeptides) (PC-3 cells; 1 nM, 37 °C, n = 3): lowest
